We go through 6 compounds from US10392363B2, “Methods for treating protozoan infections” (Neoculi Pty Ltd., priority 2014, dated 2019).

SMILES strings stand for the structures. Some results are limits rather than exact numbers.

Series [1] concerns Leishmania donovani promastigotes. The experiment in a line: L. donovani screening (Alamarblue). Format: cell-based. The following applies: for IC50: 72 hours; for L. donovani SI: GI50 of macrophages divided by IC50 of parasites. The method, then: L. donovani Screening. Procyclic promastigotes from exponentially growing cultures maintained in DME-L+ Bob additions were used for all assays. Compounds were initially screened for activity at 10 μM. Compounds were diluted in culture media to a […] in 96 well plates. Promastigotes were diluted to a density of ˜8×10^5 cells/ml then added to the assay plate resulting in a final cell density of 4×10^5 cells/ml. in 96 well plates. Cells were incubated for 96 hrs at 27° C. before the addition of Alamarblue (thermofisher). Fluorescence was read at excitation 530 nm and Emission 590 nm. […] Compounds were serially diluted in thirds, in a 96 well plate, in cell growth media so that concentrations ranged from 0.005 to 10 μM and promastigotes added to a final concentration of 1×10^6 cells/ml. Cells were incubated at 27° C. for 72 hours before the addition of alamar blue. Fluorescence was measured as above.

In series [2] the test system is T. brucei procyclic stage. The experiment in a line: T. brucei screening (alamar blue). The class given is cell-based, Trypanosoma brucei. The conditions noted are these: for T. brucei SI: GI50 of macrophages divided by IC50 of parasites. The method, then: T. brucei screening. Procyclic promastigotes from exponentially growing cells maintained SDM-79 medium were used in all assays. Compounds were initially screened at 10 μM for activity. Compounds were diluted in culture media to a concentration of 20 μM and added to a 96 well plate, after addition of promastigotes (final concentration 4×10^5 cells/ml) compound concentration was 10 μM. Cells were incubated for 48 hrs at 27° C. before the addition of alamar blue and fluorescence measurement as described above. […] Compounds were serially diluted in thirds in culture media resulting in final concentrations ranging from 0.004-10 μM. Promastigotes were added at a final concentration of 4×10^5 cells/ml. Cells were incubated at 27° C. for 48 hours before addition of alamar blue. In addition promastigotes, at a concentration of 8×10^5 were exposed to NCL026 for 1.5 hours before removal of the drug via centrifugation at 5000 rpm for 7 minutes and resuspension of cells in culture media. Cells were incubated for 96 hours at 27° C. and observed daily for metabolic activity (alamar blue assay) and morphological changes. A control culture was exposed to DMSO instead of NCL026.

Series [3] deals with Mouse macrophages (RAW 264.7). The series is described as follows: Cell toxicity assay (WST-1). The class given is cell-based. The conditions noted are these: RAW 264.7, 24 hours, read-out: GI50 macrophage. As to the method: (§1) Cell toxicity assays. Mouse macrophages (RAW 264.7) were grown in RPM11640 media supplemented with L-glutamine and 10% foetal calf serum. Cells were trypsanised when 80% confluent and subcultured every 3-4 days. For cytotoxicity assays cells were diluted to a final cell concentration of 2×10^4 cells/ml and 198 μl added to each well of a 96 well plate. Cells were incubated in a humidified incubator for 2 hours at 37° C. 5% CO2 before the addition of NCL compounds (2 μl/well, previously diluted in DMSO). Campothecin, triton X and DMSO only were used as controls. Cells were exposed to the compounds for 24 hours. The metabolic activity of the cells was determined using the WST-1 assay system (Roche Life Science). The supernatant was removed, 100 μl of PBS with 10% WST-1 was added to each well and incubated for 1 hr before reading absorbance at 450 nm. The selectivity index of the compounds was determined by dividing the IC50 of macrophages by the IC50 against parasites. IC50 was determined via graphpad prism software.

A short description of series [4]: Exposure in male Swiss outbred mice following IV administration. The class given is in vivo. The conditions noted are these: IV 5 mg/kg; for Apparent t1/2: plasma, value marked b is an approximation; for AUC0-inf / Plasma CL / Plasma Vss: values marked a, b are approximations. The method, then: The systemic exposures of NCL026, NCL195, NCL259 and NCL812 were studied in nonfasted male Swiss outbred mice weighing 26.2-32.1 g. Mice had access to food and water ad libitum throughout the pre- and post-dose sampling period. Each compound was administered IV via a bolus injection into the tail vein (vehicle 20% (v/v) DMSO in PEG400, 1 mL/kg dose volume, n=8 mice per compound). […] A maximum of two samples were obtained from each mouse, with samples being taken either via submandibular bleed (approximately 120 μL; conscious sampling) or terminal cardiac puncture (0.6 mL; while mice were anaesthetised using inhaled Isoflurane). No urine samples were collected as mice were housed in bedded cages during the study. Blood was collected directly into polypropylene Eppendorf tubes containing heparin as anticoagulant, and stabilisation cocktail (containing Complete® (a protease inhibitor cocktail with EDTA) and potassium fluoride) to minimise the potential for ex vivo degradation of the test compounds in blood/plasma samples. Once collected, blood samples were centrifuged immediately, supernatant plasma was removed, and stored at −80° C. until analysis by LC-MS using methods standard in the art. Each compound was administered in a vehicle composed of 20% (v/v) DMSO in PEG400. Formulations were prepared by dissolving the compounds in DMSO prior to addition of PEG400. Formulations were not filtered prior to dosing and were administered to mice within 2.5 h of preparation. […] The dose administered to each mouse was calculated on the basis of the measured concentration in the IV formulation, the dose volume and individual mouse body weight. Plasma concentration versus time data were analysed using non-compartmental methods (WinNonlin Version 6.3.0.395). Standard calculations for each pharmacokinetic parameter were calculated using standard methods in the art.

The subject of series [5] is Trypanosoma cruzi (Tulahuen trypomastigotes expressing β-galactosidase, in L6 cells). The experiment in a line: In vitro T. cruzi assay for determination of IC50. The class given is cell-based. The conditions noted are these: 96 h incubation. The method, then: The T. cruzi assay uses Tulahuen trypomastigotes expressing the β-galactosidase gene. The parasites were maintained in vitro by serial passage in L6 cells. […] Extracellular trypomastigotes were then removed and NCL compounds were added in seven-point serial dilutions performed in triplicate. Benznidazole (Epichem Pty Ltd.) was included as a control. […] After 4-6 h, a colour change following catabolisation of the reagent by viable T. cruzi was observed and absorbance was read at 530 nm using a Dynex microplate reader. […] For each compound, % inhibition values were used to generate a standard curve from which the IC50 was calculated. Each assay was performed at least twice, and the average was used.

Series [6] can be described thus: Cell toxicity assay (WST-1). Format: cell-based, mouse. The conditions noted are these: mouse, RAW 264.7 macrophages, RAW 264.7, 24 hours, read-out: GI50 macrophage. As to the method: as §1
Series [7] in a line: Exposure of NCL195 in male Swiss outbred mice following IP administration. Format: in vivo. As to the method: The formulation was prepared by dissolving solid NCL195 in DMSO (to 20% (v/v) of the final volume) before adding PEG400, yielding a clear yellow solution that was dosed to mice within 30 minutes of preparation. The measured concentration of NCL195 in the final formulation was 21.9 mg/mL, resulting in a mean administered dose of 43 mg/kg. Following administration, blood samples were collected up to 24 h post-dose (n=2 mice per time point). A maximum of two samples were obtained from each mouse, with samples being taken either via submandibular bleed (approximately 120 μL; conscious sampling) or terminal cardiac puncture (0.6 mL; while mice were anaesthetised using inhaled Isoflurane). No urine samples were collected as mice were housed in bedded cages during the study. Blood was collected directly into polypropylene Eppendorf tubes containing heparin as anticoagulant and stabilisation cocktail (containing Complete® (a protease inhibitor cocktail), potassium fluoride and EDTA) to minimise the potential for ex vivo degradation of NCL195 in blood/plasma samples. Once collected, blood samples were centrifuged immediately, supernatant plasma was removed, and stored in −20° C. until analysis by LCMS using standard methods in the art.

Series [8] concerns Giardia duodenalis (strain WB trophozoites). The series is described as follows: Giardia adherence assay. The following applies: exposed for 5 hours. Format: cell-based. The method, then:
Giardia strain WB was grown until confluent (grown and maintained in TYI-S-33 medium with 10% foetal bovine serum). For the assay, media of a confluent culture was replaced with fresh TYI-S-33 medium. Cultures were then cold shocked (on ice) for 40 minutes to detach trophozoites. The cell density of the cultures was adjusted to 1×10^6 cells/ml and 1 ml was added to each well of a 24 well plate already containing 1 ml of diluted compounds (see below). […] After incubation the coverslips were removed, air-dried and stained with Diff-Quik (a Romanowski stain variant). Coverslips were mounted onto glass slides using polymount. Images at 10× magnification were taken at 5 random locations per coverslip. […] Stock solutions of compounds were prepared in DMSO at 25.6 mg/ml. Compounds were diluted 1:100 in TYI-S-33 medium. A 1:2 serial dilution was then performed in TYI-S-33 medium in 24 well plates.

Series [9] concerns Giardia duodenalis trophozoites. The series is described as follows: Resazurin reduction assay (Example 3). Format: cell-based. The following applies: 42 hours, then 6 hours with Alamarblue. As to the method: Giardia trophozoites were grown until confluent. The media was replaced with fresh media and they were cold shocked for 40 minutes (as above). Cells were diluted to a concentration of ˜500 000 cells/ml and 100 μl were added to each well of the assay plate (except media only control). The assay was incubated in an anaerobic environment (candle jar) for 42 hours at 37° C. […] After incubation the absorbance of each sample was read at 570 and 630 nm. The percent reduction of resazurin (Alamarblue™) was calculated and data was analysed with GraphPad Prism v6 software. Assay set-up: the assay was performed in 96 well plates in a total volume of 200 μl. 100 μl of NCL812 or NCL062 (concentration of 25.6 mg/ml in DMSO) or metronidazole (concentration 5 mg/ml in DMSO) stock was added to 9.9 ml of TYI-S-33 medium, then serially diluted 1:2 in the same medium. Cells were added as above.

In the next series the test system is giardia. The following applies: cited from earlier work.

On to `N#Cc1cccc(C=NNC(=N)NN=Cc2cccc(C#N)c2)c1` [NCL026], for which, in series [1], inhibition was half-maximal at 2500 ± 130 nM (IC50) and the “L. donovani SI” value worked out at 3.84. The “reduction of metabolic activity / inhibitory effect on T. brucei” value in series [2] (10 μM, 48 hrs) is given as “greatest inhibitory effect”. In series [2] (48 hours), this compound showed an IC50 of 1700 nM. Also, the IC50 in series [2] (48 hours, listed as NCL 026) is 1680 ± 630 nM. For the same compound, in series [2], the “T. brucei SI” value was found to be 5.71. Moreover, the concentration for 50% growth inhibition (GI50) in [3] amounted to 9600 ± 990 nM. In series [4], the “Apparent t1/2” value is reported as 1.5 h, the AUC0-inf came to 2.5 µM·h, the “Plasma CL” value is 100.6 mL/min/kg and the “Plasma Vss” value is 6.9 L/kg. In [5], this compound came in with an IC50 of 1400 nM.
Regarding `Cl.N=C(NN=Cc1ccc(SC(F)(F)F)cc1)NN=Cc1ccc(SC(F)(F)F)cc1` [NCL166], in series [1], inhibition was half-maximal at 3230 ± 1000 nM (IC50) and the “L. donovani SI” value turned out to be 2.78. Besides, the GI50 in series [3] came out at 9460 ± 50 nM.
As to `CN(C)c1ccc(C=NNC(=N)NN=Cc2ccc(N(C)C)cc2O)c(O)c1` [NCL171], the IC50 in series [2] (48 hours) is 1400 nM; in series [2] (48 hours, listed as NCL 171) it was 1370 ± 30 nM. Besides, the results for the “T. brucei SI” value in series [2] and in [2] (listed as NCL 171) were “relatively selective” and 9.14, respectively. The GI50 in series [3] worked out at 12500 ± 3610 nM.
As for `Cc1ccc(/C=N/Nc2cc(N/N=C/c3ccc(C)cc3)nc(N)n2)cc1` [NCL195, 4,6-bis(2-((E)-4-methylbenzylidene)hydrazinyl)pyrimidin-2-amine], in [1] (Leishmania donovani, 10 μM, 96 hrs, read-out: reduction of metabolic activity / inhibition of L. donovani), the inhibition at 10 µM came to 100%. The compound further gave an IC50 in series [2] (48 hours) of 1460 ± 760 nM. Besides, the “T. brucei SI” value in series [2] is 3.79. In series [2] (Trypanosoma brucei, 48 h), this compound registered a concentration for half-maximal inhibition (IC50) of 1500 nM. For the same compound, the GI50 at 24 h in [6] came to 5780 ± 330 nM. Moreover, in series [4], the “Apparent t1/2” value was 2.4 h, the AUC0-inf was found to be 12.5 µM·h, the “Plasma CL” value was found to be 16.3 mL/min/kg and the “Plasma Vss” value is listed as 2.6 L/kg. In series [7] (IP, 43 mg/kg), the absorption after dosing result is on record as “rapidly absorbed” and the “adverse reactions or compound-related side effects” value is given as “No adverse reactions or compound-related side effects”. Further, the “duration of exposure at a plasma concentration >8 μg/mL” value in [7] (extrapolated to IP 100 mg/kg, assuming dose proportionality) is reported as “at least 7.5 hours”.
Consider `Cc1ncc([N+](=O)[O-])n1CCO` [metronidazole, reference compound], for which, in series [8], the “number of adherent trophozoites” value is “significant decreases”. Also, the “metabolic activity of the trophozoites (percentage of reduction of resazurin)” value in series [9] is given as “reduction in the metabolic activity”. Also, the median efficacy entry in the series with giardia (giardia treatment) is on record as “approximately 89%”. Besides, the “giardia curative rate (clearance of the protozoan)” value in the series with giardia (human adult and paediatric patients, 5-10 days, reported as low as) is at least 60%.
For the compound `CC(=O)Oc1ccccc1C(=O)Nc1ncc([N+](=O)[O-])s1` [nitazoxanide], in the series with giardia (giardia), the “overall response rate (clearance of the protozoan)” value is reported as 75%.
